Experimental data as given in US8946238B2, “Pyrazolo[1,5-A]pyrimidines as antiviral agents” (Gilead Sciences, Inc., priority 2011, dated 2015).
Where two headings read alike, the source gives them in different places.

Tested on: RSV strain A2
Assay: RSV antiviral cytoprotection assay in Hep2 cells (RSV-induced cytopathic effect, Cell TiterGlo)
Format: cell-based, Respiratory Syncytial Virus (RSV)
Conditions: for inhibition at 0.5 µM: human respiratory syncytial virus
How it was run: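 Hep2 cells were infected with RSV A2 and exposed to 3-fold compound dilutions, either 3,000 cells/well for 4 days (96-well) or 2000 cells/well at MOI 1:1000 for 5 days at 37° C. (384-well). Cytopathic effect was read by Cell TiterGlo luminescence, and EC50 or normalized % inhibition came from curve fits against infected and uninfected controls.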

[1] = HEp-2, 0.5 μM compound, RSV A2-infected Hep2 cells, % inhibition calculated from 4-parameter dose response curve, normalized to 0% and 100%, read-out: Percent inhibition at 0.5 μM

Compound	inhibition at 0.5 µM [1] [%]	further results
Cc1ccc(F)cc1C(=O)N1CCCC[C@H]1c1cc2nc(N3C[C@@H](C#N)[C@@H](O)C3)c(C)cn2n1 [Compound 156]	100	
Cc1cn2nc([C@@H]3CCCCN3C(=O)c3c(F)cccc3F)cc2nc1N1C[C@@H](C#N)[C@@H](O)C1 [Compound 157]	98	
Cc1cccnc1C(=O)N1CCCC[C@H]1c1cc2nc(N3C[C@@H](C#N)[C@@H](O)C3)c(C)cn2n1 [Compound 159]	91	
Cc1cn2nc([C@@H]3CCCCN3C(=O)c3cccc(F)n3)cc2nc1N1C[C@@H](C#N)[C@@H](O)C1 [Compound 160]	71	
Cc1cn2nc([C@@H]3CCCCN3C(=O)c3cc(I)ccn3)cc2nc1N1C[C@@H](C#N)[C@@H](O)C1 [Compound 161]	61	
Cc1cn2nc([C@@H]3CCCCN3C(=O)c3cccc4c3CCCC4)cc2nc1N1C[C@@H](C#N)[C@@H](O)C1 [Compound 162]	100	
Cc1cn2nc([C@@H]3CCCCN3C(=O)c3nccc4ccccc34)cc2nc1N1C[C@@H](C#N)[C@@H](O)C1 [Compound 163]	100	
COc1cccc(C(=O)N2CCCC[C@H]2c2cc3nc(N4C[C@@H](C#N)[C@@H](O)C4)c(C)cn3n2)c1C [Compound 165]	92	
COc1cc(C)c(C(=O)N2CCCC[C@H]2c2cc3nc(N4C[C@@H](C#N)[C@@H](O)C4)c(C)cn3n2)cc1C [Compound 167]	100	
Cc1cn2nc([C@@H]3CCCCN3C(=O)c3cc(C(F)(F)F)ccn3)cc2nc1N1C[C@@H](C#N)[C@@H](O)C1 [Compound 168]	44	
Cc1cn2nc([C@@H]3CCCCN3C(=O)c3cccc(C)c3C)cc2nc1N1C[C@@H](C#N)[C@@H](O)C1 [Compound 169]	100	
Cc1ccc(Cl)c(C(=O)N2CCCC[C@H]2c2cc3nc(N4C[C@@H](C#N)[C@@H](O)C4)c(C)cn3n2)c1 [Compound 170]	100	
Cc1ccc(Br)c(C(=O)N2CCCC[C@H]2c2cc3nc(N4C[C@@H](C#N)[C@@H](O)C4)c(C)cn3n2)c1 [Compound 171]	100	
Cc1cn2nc([C@@H]3CCCCN3C(=O)c3cccc(F)c3C)cc2nc1N1C[C@@H](C#N)[C@@H](O)C1 [Compound 172]	100	
COc1cc(C)ccc1C(=O)N1CCCC[C@H]1c1cc2nc(N3C[C@@H](C#N)[C@@H](O)C3)c(C)cn2n1 [Compound 173]	98	
COc1cc2ccccc2cc1C(=O)N1CCCC[C@H]1c1cc2nc(N3C[C@@H](C#N)[C@@H](O)C3)c(C)cn2n1 [Compound 174]	58	
Cc1cn2nc([C@@H]3CCCCN3C(=O)c3cccc4n[nH]cc34)cc2nc1N1C[C@@H](C#N)[C@@H](O)C1 [Compound 175]	91	
Cc1cccc(C(=O)N2CCCC[C@H]2c2cc3nc(N4C[C@@H](C#N)[C@@H](O)C4)c(C)cn3n2)n1 [Compound 176]	97	
Cc1cn2nc([C@@H]3CCCCN3C(=O)c3ccc(Cl)c(Cl)c3)cc2nc1N1C[C@@H](C#N)[C@@H](O)C1 [Compound 177]	99	
COc1ccsc1C(=O)N1CCCC[C@H]1c1cc2nc(N3C[C@@H](C#N)[C@@H](O)C3)c(C)cn2n1 [Compound 178]	100	
Cc1cccnc1C(=O)N1CCCC[C@H]1c1cc2nc(N3C[C@@H](C#N)[C@@H](O)C3)c(C)cn2n1 [Compound 179]		Percent inhibition at 0.5 μM (0.5 μM compound, RSV A2-infected Hep2 cells, % inhibition calculated from 4-parameter dose response curve, normalized to 0% and 100%, 0.5 µM): 93%
Cc1cn2nc([C@@H]3CCCCN3C(=O)c3ccccc3-c3ccccc3)cc2nc1N1C[C@@H](C#N)[C@@H](O)C1 [Compound 180]	94	
Cc1cn2nc([C@@H]3CCCCN3C(=O)c3ccsc3)cc2nc1N1C[C@@H](C#N)[C@@H](O)C1 [Compound 181]	83	

Compound	inhibition at 0.5 µM [1] [%]	further results
Cc1cn2nc([C@@H]3CCCCN3C(=O)c3c(Cl)c(C)nn3C)cc2nc1N1C[C@@H](C#N)[C@@H](O)C1 [Compound 182]	93	
Cc1cn2nc([C@@H]3CCCCN3C(=O)c3csc4c3CCCC4)cc2nc1N1C[C@@H](C#N)[C@@H](O)C1 [Compound 183]	100	
Cc1cn2nc([C@@H]3CCCCN3C(=O)c3ccccc3C(F)(F)F)cc2nc1N1C[C@@H](C#N)[C@@H](O)C1 [Compound 184]	100	
Cc1cn2nc([C@@H]3CCCCN3C(=O)c3cccc4c3ccn4C)cc2nc1N1C[C@@H](C#N)[C@@H](O)C1 [Compound 185]	100	
Cc1cn2nc([C@@H]3CCCCN3C(=O)c3cc(F)ccc3Cl)cc2nc1N1C[C@@H](C#N)[C@@H](O)C1 [Compound 186]	100	
Cc1cn2nc([C@@H]3CCCCN3C(=O)c3nn(C)c4ccccc34)cc2nc1N1C[C@@H](C#N)[C@@H](O)C1 [Compound 187]	100	
COc1ccc(Cl)c(C(=O)N2CCCC[C@H]2c2cc3nc(N4C[C@@H](C#N)[C@@H](O)C4)c(C)cn3n2)c1 [Compound 188]	100	
Cc1cn2nc([C@@H]3CCCCN3C(=O)c3ccnn3CC(F)(F)F)cc2nc1N1C[C@@H](C#N)[C@@H](O)C1 [Compound 189]	89	
Cc1cn2nc([C@@H]3CCCCN3C(=O)c3c(Cl)cnn3C(C)C)cc2nc1N1C[C@@H](C#N)[C@@H](O)C1 [Compound 190]	100	
Cc1cn2nc([C@@H]3CCCCN3C(=O)c3cc(Cl)ccc3NS(C)(=O)=O)cc2nc1N1C[C@@H](C#N)[C@@H](OP(=O)(O)O)C1 [Compound 192]	100	
Cc1ccnc(C(=O)N2CCCC[C@H]2c2cc3nc(N4CC(C#N)[C@@H](O)C4)c(C)cn3n2)c1 (stereo partly shown) [Compound 196]	96	
Cc1ccc(N2CCCS2(=O)=O)c(C(=O)N2CCCC[C@H]2c2cc3nc(N4C[C@@H](C#N)[C@@H](O)C4)c(C)cn3n2)c1 [Compound 197]	100	
Cc1cn2nc([C@@H]3CCCCN3C(=O)c3cc(Br)ccc3NS(C)(=O)=O)cc2nc1N1C[C@@H](C#N)[C@@H](O)C1 [Compound 199]	100	
Cc1ccc(NS(C)(=O)=O)c(C(=O)N2CCCC[C@H]2c2cc3nc(N4C[C@@H](C#N)[C@@H](O)C4)c(C)cn3n2)c1 [Compound 200]		inhibition at 0.5 µM (HEp-2, read-out: Percent inhibition at 0.5 μM): 100%
COc1ccc(Cl)cc1C(=O)N1CCCC[C@H]1c1cc2nc(N3C[C@@H](C#N)[C@@H](O)C3)c(C)cn2n1 [Compound 201]	100	
Cc1ccc(Cl)cc1C(=O)N1CCCC[C@H]1c1cc2nc(N3C[C@@H](C#N)[C@@H](O)C3)c(C)cn2n1 [Compound 202]	100	
CC(=O)Nc1ccc(C)cc1C(=O)N1CCCC[C@H]1c1cc2nc(N3CC(O)C(C#N)C3)c(C)cn2n1 (stereo partly shown) [Compound 203]	100	
Cc1cn2nc([C@@H]3CCCCN3C(=O)c3cc(Cl)ccc3NS(C)(=O)=O)cc2nc1N1C[C@@H](C#N)[C@@H](OC(=O)[C@H](N)C(C)C)C1 [Compound 204]	100	
Cc1cn2nc([C@@H]3CCCCN3C(=O)c3cc(Cl)ccc3NS(C)(=O)=O)cc2nc1N1C[C@@H](C#N)[C@@H](OC(=O)[C@H]2CCCN2)C1 [Compound 205]	100	
Cc1cn2nc([C@@H]3CCCCN3C(=O)c3cc(Cl)ccc3NS(C)(=O)=O)cc2nc1N1C[C@@H](C#N)[C@@H](OC(=O)CN)C1 [Compound 206]	100	
Cc1cn2nc([C@@H]3CCCCN3C(=O)c3cc(Cl)ccc3NS(C)(=O)=O)cc2nc1N1C[C@@H](C#N)[C@@H](OC(=O)CCC(=O)O)C1 [Compound 207]	100	
Cc1cn2nc([C@@H]3CCCCN3C(=O)c3cc(Cl)ccc3NS(C)(=O)=O)cc2nc1N1C[C@@H](C#N)[C@@H](OC(=O)c2cccnc2)C1 [Compound 208]	100	
Cc1cn2nc([C@@H]3CCCCN3C(=O)c3cc(Cl)ccc3NS(C)(=O)=O)cc2nc1N1C[C@@H](C#N)[C@@H](OC(=O)CCC(=O)NCCN2CCOCC2)C1 [Compound 209]	100	
